In ChEMBL document CHEMBL1149783, “New stereoselective titanium reductive amination synthesis of 3-amino and polyaminosterol derivatives possessing antimicrobial activities” (2008) one finds MIC data, which are given here for 27 compounds.

Structures are written as SMILES. ≈ marks a conversion by molar mass, not a printed value.

Assay type in all cases: functional
One experiment has as its system Saccharomyces cerevisiae. Kind of experiment: Antifungal activity against Saccharomyces cerevisiae CIP 28383 by broth microdilution method. Background: In broth dilution the organism is exposed to a series of concentrations in liquid medium.
A further experiment relates to Candida albicans. Kind of experiment: Antifungal activity against Candida albicans CIP 1180-79 by broth microdilution method.
The next experiment concerns Staphylococcus aureus. Kind of experiment: Antibacterial activity against Staphylococcus aureus CIP 4.83 by broth microdilution method.
The next experiment has as its system Enterococcus faecalis. Kind of experiment: Antibacterial activity against Enterococcus faecalis CIP 103015 by broth microdilution method.
The test system of the next experiment is Escherichia coli. Kind of experiment: Antibacterial activity against Escherichia coli CIP 54127 by broth microdilution method.

A word on the MIC: it is the smallest concentration in the dilution series that meets the test's criterion for growth inhibition. `CC(C)CCCC(C)C1CCC2C3CCC4CC(NCCCNCCCCNCCCN)CCC4(C)C3CCC12C` (stereo not drawn): the MIC in the experiment with Saccharomyces cerevisiae was 6.25 µg/mL (≈ 10.9 µM); in the experiment with Candida albicans it was 50 µg/mL (≈ 87.3 µM); with Staphylococcus aureus, 3.12 µg/mL (≈ 5.45 µM); with Enterococcus faecalis, 12.5 µg/mL (≈ 21.8 µM); with Escherichia coli it was over 50 µg/mL.

In the case of `CNC1CCC2(C)C(CCC3C2CCC2(C)C(C(C)CCCC(C)C)CCC32)C1` (stereo not drawn), the MIC in the experiment with Saccharomyces cerevisiae is 12.5 µg/mL (≈ 31.1 µM); in the experiment with Candida albicans, 12.5 µg/mL (≈ 31.1 µM); in the experiment on Staphylococcus aureus, 6.25 µg/mL (≈ 15.6 µM); in the experiment with Enterococcus faecalis, 6.25 µg/mL (≈ 15.6 µM); in the experiment on Escherichia coli, over 50 µg/mL.

Regarding `CC(C)CCCC(C)C1CCC2C3CCC4CC(N)CCC4(C)C3CCC12C` (stereo not drawn), the MIC in the experiment on Saccharomyces cerevisiae is over 50 µg/mL; in the experiment with Candida albicans, 50 µg/mL (≈ 129 µM); in the experiment with Staphylococcus aureus it was over 50 µg/mL; with Enterococcus faecalis, 50 µg/mL (≈ 129 µM); in the experiment on Escherichia coli, over 50 µg/mL.

With `CC(C)CCCC(C)C1CCC2C3CCC4CC(NCCCCCCCN)CCC4(C)C3CCC12C` (stereo not drawn), the MIC in the experiment with Saccharomyces cerevisiae, in the experiment on Candida albicans, with Staphylococcus aureus, against Enterococcus faecalis and with Escherichia coli was over 50 µg/mL in each case.

Turning to `CC(C)CCC[C@@H](C)[C@H]1CC[C@H]2[C@@H]3CCC4=C[C@@H](NCCCCCCCCCN)CC[C@]4(C)[C@H]3CC[C@]12C`, the MIC in the experiment on Saccharomyces cerevisiae, with Candida albicans, in the experiment with Staphylococcus aureus, against Enterococcus faecalis and in the experiment on Escherichia coli was over 50 µg/mL each time.

Take `CC(C)CCC[C@@H](C)[C@H]1CC[C@H]2[C@@H]3CC=C4C[C@@H](NCCCNCCCCNCCCN)CC[C@]4(C)[C@H]3CC[C@]12C`: the MIC in the experiment on Saccharomyces cerevisiae is over 50 µg/mL; in the experiment with Candida albicans, over 50 µg/mL; against Staphylococcus aureus, 6.25 µg/mL (≈ 10.9 µM); against Enterococcus faecalis, over 50 µg/mL; in the experiment with Escherichia coli it was over 50 µg/mL.

Turning to `CC(C)CCC[C@@H](C)[C@H]1CC[C@H]2[C@@H]3CC[C@H]4C[C@@H](NCCCN)CC[C@]4(C)[C@H]3CC[C@]12C`, the MIC against Saccharomyces cerevisiae, against Candida albicans, in the experiment with Staphylococcus aureus, with Enterococcus faecalis and against Escherichia coli was over 50 µg/mL throughout.

As to `CC(C)CCC[C@@H](C)[C@H]1CC[C@H]2[C@@H]3CC=C4C[C@@H](NCCN)CC[C@]4(C)[C@H]3CC[C@]12C`, the MIC in the experiment on Saccharomyces cerevisiae was over 50 µg/mL; in the experiment with Candida albicans, over 50 µg/mL; against Staphylococcus aureus, 12.5 µg/mL (≈ 29.2 µM); in the experiment on Enterococcus faecalis, 25 µg/mL (≈ 58.3 µM); against Escherichia coli, 12.5 µg/mL (≈ 29.2 µM).

Take `CC(C)CCC[C@@H](C)[C@H]1CC[C@H]2[C@@H]3CC=C4C[C@@H](NCCCCN)CC[C@]4(C)[C@H]3CC[C@]12C`: the MIC in the experiment on Saccharomyces cerevisiae was over 50 µg/mL; against Candida albicans, over 50 µg/mL; against Staphylococcus aureus, 1.56 µg/mL (≈ 3.42 µM); in the experiment with Enterococcus faecalis it was 6.25 µg/mL (≈ 13.7 µM); in the experiment on Escherichia coli it was 6.25 µg/mL (≈ 13.7 µM).

For the compound `CC(C)CCC[C@@H](C)[C@H]1CC[C@H]2[C@@H]3CC[C@H]4C[C@@H](NCCCCN)CC[C@]4(C)[C@H]3CC[C@]12C`, the minimum inhibitory concentration (MIC) is 50 µg/mL (≈ 109 µM) in the experiment with Saccharomyces cerevisiae; 25 µg/mL (≈ 54.5 µM) against Candida albicans; 12.5 µg/mL (≈ 27.2 µM) with Staphylococcus aureus; over 50 µg/mL against Enterococcus faecalis; over 50 µg/mL in the experiment with Escherichia coli.

Regarding `CC(C)CCC[C@@H](C)[C@H]1CC[C@H]2[C@@H]3CC[C@H]4C[C@@H](NCCN)CC[C@]4(C)[C@H]3CC[C@]12C`, the minimum inhibitory concentration (MIC) against Saccharomyces cerevisiae is 50 µg/mL (≈ 116 µM); against Candida albicans, over 50 µg/mL; against Staphylococcus aureus, 12.5 µg/mL (≈ 29 µM); in the experiment on Enterococcus faecalis, over 50 µg/mL; with Escherichia coli, over 50 µg/mL.

As to `CC(C)CCC[C@@H](C)[C@H]1CC[C@H]2[C@@H]3CCC4=C[C@@H](NCCCCCCN)CC[C@]4(C)[C@H]3CC[C@]12C`, the MIC in the experiment on Saccharomyces cerevisiae, against Candida albicans, in the experiment with Staphylococcus aureus, in the experiment with Enterococcus faecalis and in the experiment with Escherichia coli was over 50 µg/mL throughout.

For `CC(C)CCC[C@@H](C)[C@H]1CC[C@H]2[C@@H]3CCC4=C[C@@H](NCCCCCCCN)CC[C@]4(C)[C@H]3CC[C@]12C`, the MIC in the experiment on Saccharomyces cerevisiae, against Candida albicans, in the experiment with Staphylococcus aureus, against Enterococcus faecalis and in the experiment with Escherichia coli was over 50 µg/mL in each case.

As for `CN[C@@H]1C=C2CC[C@H]3[C@@H]4CC[C@H]([C@H](C)CCCC(C)C)[C@@]4(C)CC[C@@H]3[C@@]2(C)CC1`, the MIC is 12.5 µg/mL (≈ 31.3 µM) in the experiment on Saccharomyces cerevisiae; 12.5 µg/mL (≈ 31.3 µM) in the experiment on Candida albicans; 1.56 µg/mL (≈ 3.9 µM) against Staphylococcus aureus; 25 µg/mL (≈ 62.5 µM) in the experiment with Enterococcus faecalis; over 50 µg/mL against Escherichia coli.

As for `CC(C)CCC[C@@H](C)[C@H]1CC[C@H]2[C@@H]3CCC4=C[C@@H](NCCN)CC[C@]4(C)[C@H]3CC[C@]12C`, the minimum inhibitory concentration (MIC) is over 50 µg/mL with Saccharomyces cerevisiae; over 50 µg/mL with Candida albicans; 12.5 µg/mL (≈ 29.2 µM) against Staphylococcus aureus; over 50 µg/mL in the experiment with Enterococcus faecalis; over 50 µg/mL in the experiment with Escherichia coli.

For the compound `CC(C)CCC[C@@H](C)[C@H]1CC[C@H]2[C@@H]3CC[C@H]4C[C@@H](NCCCCCCN)CC[C@]4(C)[C@H]3CC[C@]12C`, the MIC in the experiment on Saccharomyces cerevisiae, in the experiment with Candida albicans, against Staphylococcus aureus, against Enterococcus faecalis and against Escherichia coli was over 50 µg/mL in each case.

As to `CC(C)CCC[C@@H](C)[C@H]1CC[C@H]2[C@@H]3CCC4=C[C@@H](NCCCCCN)CC[C@]4(C)[C@H]3CC[C@]12C`, the minimum inhibitory concentration (MIC) was over 50 µg/mL against Saccharomyces cerevisiae; over 50 µg/mL against Candida albicans; 6.25 µg/mL (≈ 13.3 µM) against Staphylococcus aureus; 6.25 µg/mL (≈ 13.3 µM) in the experiment with Enterococcus faecalis; over 50 µg/mL in the experiment with Escherichia coli.

Consider `CC(C)CCC[C@@H](C)[C@H]1CC[C@H]2[C@@H]3CCC4=C[C@@H](NCCCN)CC[C@]4(C)[C@H]3CC[C@]12C`, for which the MIC was over 50 µg/mL against Saccharomyces cerevisiae; 25 µg/mL (≈ 56.5 µM) in the experiment with Candida albicans; 12.5 µg/mL (≈ 28.2 µM) against Staphylococcus aureus; over 50 µg/mL in the experiment on Enterococcus faecalis; over 50 µg/mL against Escherichia coli.

Consider `CC(C)CCC[C@@H](C)[C@H]1CC[C@H]2[C@@H]3CCC4=C[C@@H](NCCCCN)CC[C@]4(C)[C@H]3CC[C@]12C`, for which the MIC against Saccharomyces cerevisiae amounted to 12.5 µg/mL (≈ 27.4 µM); in the experiment on Candida albicans it was 6.25 µg/mL (≈ 13.7 µM); in the experiment on Staphylococcus aureus, 6.25 µg/mL (≈ 13.7 µM); in the experiment on Enterococcus faecalis it was 6.25 µg/mL (≈ 13.7 µM); in the experiment with Escherichia coli, 25 µg/mL (≈ 54.7 µM).

For `CC(C)CCC[C@@H](C)[C@H]1CC[C@H]2[C@@H]3CCC4=C[C@@H](NCCCCCCCCCCCCN)CC[C@]4(C)[C@H]3CC[C@]12C`, the MIC against Saccharomyces cerevisiae, in the experiment with Candida albicans, against Staphylococcus aureus, with Enterococcus faecalis and in the experiment with Escherichia coli was over 50 µg/mL each time.

With `CC(C)CCC[C@@H](C)[C@H]1CC[C@H]2[C@@H]3CCC4=C[C@@H](NCCCCCCCCCCN)CC[C@]4(C)[C@H]3CC[C@]12C`, the MIC with Saccharomyces cerevisiae, against Candida albicans, against Staphylococcus aureus, with Enterococcus faecalis and against Escherichia coli was over 50 µg/mL in each case.

Take `CC(C)CCC[C@@H](C)[C@H]1CC[C@H]2[C@@H]3CCC4=C[C@@H](NCCCNCCCCNCCCN)CC[C@]4(C)[C@H]3CC[C@]12C`: the MIC in the experiment with Saccharomyces cerevisiae is over 50 µg/mL; against Candida albicans, 50 µg/mL (≈ 87.6 µM); against Staphylococcus aureus, 6.25 µg/mL (≈ 10.9 µM); in the experiment on Enterococcus faecalis, over 50 µg/mL; against Escherichia coli it was 50 µg/mL (≈ 87.6 µM).

For `CC(C)CCC[C@@H](C)[C@H]1CC[C@H]2[C@@H]3CC=C4C[C@@H](NCCCN)CC[C@]4(C)[C@H]3CC[C@]12C`, the MIC against Saccharomyces cerevisiae is over 50 µg/mL; against Candida albicans, over 50 µg/mL; against Staphylococcus aureus it was 6.25 µg/mL (≈ 14.1 µM); in the experiment on Enterococcus faecalis it was 6.25 µg/mL (≈ 14.1 µM); in the experiment with Escherichia coli, 6.25 µg/mL (≈ 14.1 µM).

Regarding `CN[C@H]1CC[C@@]2(C)C(=CC[C@H]3[C@@H]4CC[C@H]([C@H](C)CCCC(C)C)[C@@]4(C)CC[C@@H]32)C1`, the minimum inhibitory concentration (MIC) in the experiment on Saccharomyces cerevisiae was 3.12 µg/mL (≈ 7.82 µM); against Candida albicans, over 50 µg/mL; with Staphylococcus aureus, 6.25 µg/mL (≈ 15.6 µM); in the experiment with Enterococcus faecalis, 6.25 µg/mL (≈ 15.6 µM); in the experiment with Escherichia coli it was over 50 µg/mL.

Consider `CC(C)CCC[C@@H](C)[C@H]1CC[C@H]2[C@@H]3CC[C@H]4C[C@@H](NCCCCCN)CC[C@]4(C)[C@H]3CC[C@]12C`, for which the MIC was 25 µg/mL (≈ 52.9 µM) with Saccharomyces cerevisiae; 50 µg/mL (≈ 106 µM) with Candida albicans; 6.25 µg/mL (≈ 13.2 µM) against Staphylococcus aureus; 50 µg/mL (≈ 106 µM) in the experiment with Enterococcus faecalis; over 50 µg/mL with Escherichia coli.

Turning to `CC(C)CCC[C@@H](C)[C@H]1CC[C@H]2[C@@H]3CCC4=C[C@@H](NCCCCCCCCN)CC[C@]4(C)[C@H]3CC[C@]12C`, the MIC in the experiment with Saccharomyces cerevisiae, against Candida albicans, with Staphylococcus aureus, in the experiment with Enterococcus faecalis and against Escherichia coli was over 50 µg/mL each time.

For `CC(C)[C@@H](CC[C@@H](C)[C@H]1CC[C@H]2[C@@H]3[C@H](O)C[C@H]4C[C@@H](NCCCNCCCCNCCCN)CC[C@]4(C)[C@H]3CC[C@]12C)OS(=O)(=O)O.Cl.Cl.Cl.Cl` [TRODUSQUEMINE HYDROCHLORIDE], the minimum inhibitory concentration (MIC) is 4 µg/mL against Candida albicans, 1 µg/mL in the experiment on Staphylococcus aureus and 4 µg/mL in the experiment on Escherichia coli.
